Source: patent US10233146B2, “Acetylenic cyanoenones as therapeutics for inflammation and carcinogenesis” (THE RESEARCH FOUNDATION FOR THE STATE UNIVERSITY OF NEW YORK, priority 2015, dated 2019)
“And” between values parts separate entries of the source, which are not always exact repeats. Equal entries are not always repeated. “Also recorded” adds a separate entry of the source. Where two headings read alike, the source gives them in different places.

Assays:
[1] = system: NQO1; assay: Induction of NQO1 in Hepa1c1c7 murine hepatoma cells; type: cell-based; conditions: for EC (2-fold NQO1 activity): Hepa1c1c7 cells, 48 h treatment, read-out: NQO1 CD (concentration required to double the specific enzyme activity of NQO1); for magnitude of NQO1 induction at higher concentrations: FIG. 3, concentrations higher than the CD values
Excerpt: In this assay, the concentration required to double (CD value) the specific enzyme activity of NQO1 is used to quantify inducer potency. […] Dinkova-KOstova, A. T. et al. 2012). […] These compounds may be more robust inducers than monocyclic compounds. [table]

[2] = system: iNOS
[3] = UV study of Michael adduct formation with DTT; type: physicochemical; conditions: for A (absorbance) With DTT (1 equiv) / λmax With DTT (1 equiv) / A (absorbance) With DTT (10 equiv) / λmax With DTT (10 equiv): 0.1 mM compound, phosphate buffer saline-1% ethanol (pH 7.4), rt; for A (absorbance) With DTT (1 equiv) / λmax With DTT (1 equiv): 0.1 mM DTT; for A (absorbance) With DTT (10 equiv) / λmax With DTT (10 equiv): 1 mM DTT; for K (equilibrium constant): 0.1 mM of compound with 0.1 mM of DTT
Experimental: Calculation of Approximate Equilibrium Constant (K)
The concentrations of 3, with initial concentration of 0.1 mM, and DTT, with initial concentration of 0.1 mM, in the phosphate buffer are calculated to be 0.0855 mM as follows: (1) The absorbance (A) is 0.956 at 0.1 mM concentration of 3 in deionized water. (2) The A of 3 is 0.817 in the phosphate buffer. (3) The concentrations of 3 and DTT in the buffer are calculated to be 0.0855 mM based on (1) and (2). From these concentrations, the approximate K is calculated as follows: K=[Adduct]/[3]×[DTT]=0.0145×10^−3/[…]=2.0×10^3 (Liters/mol).
Unfortunately, since the λmax of 4-8 was not observed due to the overlapping, we can't calculate the concentrations of the adducts of 4-8 by the same method as for 3. However, since we can speculate that the ε of the adducts of 4-8 is almost similar to that of the adduct of 2, we can calculate the concentrations of the adducts of 4-8 based on the A (0.227 at 0.0145 mM) of the adduct of […] and the A of the adducts of 4-8. For example, the concentration of the adduct of 5 is 0.0145×0.369 (A of the adduct of 5)/0.227=0.0235 (mM). Therefore, the concentrations of 5 and DTT are 0.0765 (mM/each). Thus, K of 5=0.0235×10^−3/0.0765×0.0765×10^−6=4.0×10^3 (Liters/mol). The K of 4 and 6-8 are also calculated using the A (0.227 at 0.0145 mM) of the adduct of 3 and the A of the adducts of 4 and 6-8, respectively.
Chemical reactivity of monocyclic, bicyclic, and tricyclic compounds 4-15 as Michael acceptors was evaluated using UV spectroscopy.
Michael reaction between ethynylcyanodienones with DTT give adducts IV (Scheme 11). Since adducts IV have different UV absorption spectra (λmax 330-380 nm) from those of the corresponding ethynylcyanodienones (λmax 230-320 nm), UV spectroscopy can clarify whether or not the Michael adducts are produced.^6
(§1) 1. UV Studies on Monocyclic and Bicyclic Compounds 4-9 with DTT Compounds 5-8 with DTT gave similar UV spectra to those of 3 (Taylor, S. K. et al. 1988). Compounds 5-8 have local maximum absorptions at 332-338 nm upon the addition of DTT (1 and 10 equiv) under dilute (0.1 mM of the compounds) and neutral aqueous conditions (pH 7.4 phosphate buffered saline-1% ethanol containing 1 mM KH2PO4, 5.6 mM Na2HPO4, and 154 mM NaCl) (Table 1 and FIG. 2). Also, these compounds react with a chloride anion (a much weaker nucleophile than a sulfhydryl group of DTT), which is contained in the buffer solution, to give Michael adducts whose local maximum absorptions are observed at 320-326 nm.
We have calculated approximate equilibrium constants (K) of these Michael reactions in the solutions of 5-8 with DTT (each initial concentration, 0.1 mM. See the calculation of the equilibrium constants in the Supporting Information). The values of K are approximately 1.0-4.2×10^3 (L/mol), implying that these additions are very strongly favored.
Tricyclic compounds 10-15 react with DTT to give the adducts whose local maximum absorptions are observed at 374-383 nm range (Table 1 and FIG. 2). […] Among phenanthrene derivatives, substitutents at C5 decrease the reactivity.

[4] = UV study of Michael adduct formation with chloride anion of the buffer (without DTT); type: physicochemical; conditions: 0.1 mM compound, phosphate buffer saline-1% ethanol (pH 7.4)
Experimental: as §1, with “nm. […]” for “nm.”

SMILES	EC (2-fold NQO1 activity) [1]	IC50 [2]	A (absorbance) With DTT (1 equiv) [3]	λmax With DTT (1 equiv) [3]	A (absorbance) With DTT (10 equiv) [3]	λmax With DTT (10 equiv) [3]	K (equilibrium constant) [3]	approximate equilibrium constant K of Michael reaction with DTT ([3]; each initial concentration 0.1 mM)	A (absorbance) Without DTT (With Cl^—) [4]	λmax Without DTT (With Cl^—) [4]	EC (2-fold NQO1 activity) ([1]; Mus musculus, Hepa-1c1c7)	melting point	approximate equilibrium constant K (calculation) ([3]; initial 0.1 mM compound and 0.1 mM DTT, phosphate buffer)	magnitude of NQO1 induction at higher concentrations [1]
CC1(C)CC[C@]2(C(=O)O)CC[C@]3(C)[C@H](C(=O)C=C4[C@@]5(C)C=C(C#N)C(=O)C(C)(C)[C@@H]5CC[C@]43C)[C@@H]2C1 [CDDO, reference compound]	0.0023 µM	23 nM	–	–	–	–	–	–	–	–	–	–	–	–
C#CC1(C#C)C=CC(=O)C(C#N)=C1 [Compound 4, 3,3-Diethynyl-6-oxocyclohexa-1,4-dienecarbonitrile]	–	210 nM	0.614	330 nm	0.510 and 0.439	333 nm and 250 nm	10600 L/mol	~10600 L/mol	0.635	328 nm	0.18 µM	110 to 111 °C	–	–
C#CC1(C=C)C=CC(=O)C(C#N)=C1 (stereo not shown) [Compound 5, 3-Ethynyl-6-oxo-3-vinylcyclohexa-1,4-dienecarbonitrile]	–	16 nM	0.369	335 nm	0.481	338 nm	4000 L/mol	–	0.197	326 nm	0.02 µM	76 to 77 °C	4000 L/mol	–
C#CC1(CC)C=CC(=O)C(C#N)=C1 (stereo not shown) [Compound 6, 3-Ethyl-3-ethynyl-6-oxocyclohexa-1,4-dienecarbonitrile]	–	–	0.135	332 nm	0.353	335 nm	1000 L/mol	–	0.036	320 nm	0.042 µM	73 to 75 °C	–	–
C#CC12C=C(C#N)C(=O)C=C1CCC2 (stereo not shown) [Compound 7, 3a-Ethynyl-6-oxo-2,3,3a,6-tetrahydro-1H-indene-5-carbonitrile]	–	160 nM	0.281	333 nm	0.355	337 nm	2700 L/mol	–	0.151	324 nm	0.056 µM	107 to 108 °C	–	induce NQO1 more effectively than monocyclic compounds 3-6
C#CC12C=C(C#N)C(=O)C=C1C(C)(C)CC2 (stereo not shown) [Compound 8, 3a-Ethynyl-1,1-dimethyl-6-oxo-2,3,3a,6-tetrahydro-1H-indene-5-carbonitrile]	–	200 nM	0.376	333 nm	0.472	337 nm	4200 L/mol	–	0.279	324 nm	0.1 µM	–	–	–
C#CC1(C)C=C(C#N)C(=O)c2ccccc21 (stereo not shown) [Compound 9, 4-Ethynyl-4-methyl-1-oxo-1,4-dihydronaphthalene-2-carbonitrile]	–	–	0.848	331 nm	0.872	333 nm	–	–	0.831	321 nm	0.22 µM	–	–	–
C#CC12C=C(C#N)C(=O)C=C1c1ccccc1CC2 (stereo not shown) [Compound 10, 10a-Ethynyl-3-oxo-3,9,10,10a-tetrahydrophenanthrene-2-carbonitrile]	–	–	shoulder	380 nm	0.723	382 nm	–	–	–	–	0.15 µM	209.5 to 211 °C	–	induce NQO1 more effectively than monocyclic compounds 3-6
C#CC12C=C(C#N)C(=O)C=C1c1c(Cl)cccc1CC2 (stereo not shown) [Compound 11, 5-Chloro-10a-ethynyl-3-oxo-3,9,10,10a-tetrahydrophenanthrene-2-carbonitrile]	–	–	shoulder	380 nm	0.262	380 nm	–	–	–	–	0.9 µM	> 230 °C	–	induce NQO1 more effectively than monocyclic compounds 3-6
C#CC12C=C(C#N)C(=O)C=C1c1c(Br)cccc1CC2 (stereo not shown) [Compound 12, 5-Bromo-10a-ethynyl-3-oxo-3,9,10,10a-tetrahydrophenanthrene-2-carbonitrile]	–	650 nM	–	–	–	–	–	–	–	–	1.3 µM	202 to 205 °C	–	–
C#CC12C=C(C#N)C(=O)C=C1c1c(C)cccc1CC2 (stereo not shown) [Compound 13, 10a-Ethynyl-5-methyl-3-oxo-3,9,10,10a-tetrahydrophenanthrene-2-carbonitrile]	–	940 nM	–	–	0.279	374 nm	–	–	–	–	1.8 µM	195.5 to 197 °C	–	–
C#CC12C=C(C#N)C(=O)C=C1c1ccccc1C2 (stereo not shown) [Compound 14, 9a-Ethynyl-3-oxo-9,9a-dihydro-3H-fluorene-2-carbonitrile]	–	480 nM	0.808	377 nm	0.820	382 nm	–	–	0.867	364 nm	0.041 µM	202 to 203 °C	–	induce NQO1 more effectively than monocyclic compounds 3-6; also recorded: induces NQO1 to a greater magnitude than 3 and 5
C#CC12C=C(C#N)C(=O)C=C1c1c(Cl)cccc1C2 (stereo not shown) [Compound 15, 5-Chloro-9a-ethynyl-3-oxo-9,9a-dihydro-3H-fluorene-2-carbonitrile]	–	800 nM	0.819	378 nm	0.803	383 nm	–	–	1.025	369 nm	0.13 µM	191 to 193 °C	–	–
C[S+]([O-])CCCCN=C=S (stereo not shown) [Sulforaphane, reference compound]	–	400 nM	–	–	–	–	–	–	–	–	0.2 µM	–	–	–
